According to patent US12365658B2, “Benzothia(di)azepine compounds and their use as bile acid modulators” (Albireo AB, priority 2021, dated 2025):

Experiments:
Human LBAT = molecular target: T1, Human LBAT (Homo sapiens, UniProt Q14973); assay: LBAT (h/m) assay, human LBAT-overexpressing cells, 3H-taurocholic acid uptake; type: cell-based; settings: 0.3 μM 3H-taurocholic acid and 7.5 μM cold taurocholic acid, 20 minutes, read-out: hLBAT IC50
T1 construct: expressed in transfected cells; kept under Geneticin selection
T1 sequence (Q14973 1-349): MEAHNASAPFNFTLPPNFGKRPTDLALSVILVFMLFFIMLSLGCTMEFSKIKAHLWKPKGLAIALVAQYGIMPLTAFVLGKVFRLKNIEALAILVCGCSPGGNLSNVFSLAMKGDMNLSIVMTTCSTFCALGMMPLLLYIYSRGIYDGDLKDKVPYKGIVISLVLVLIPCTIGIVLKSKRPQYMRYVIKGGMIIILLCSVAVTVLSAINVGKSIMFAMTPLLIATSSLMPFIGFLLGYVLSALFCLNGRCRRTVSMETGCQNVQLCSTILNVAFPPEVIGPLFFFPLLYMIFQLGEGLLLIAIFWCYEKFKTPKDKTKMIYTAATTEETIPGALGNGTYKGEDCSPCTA
Method: LBAT (h/m) Assay Protocol
20,000 cells (Human or Mouse LBAT-overexpressing cells) were seeded in 96-wells plate (Corning CLS3809) in 100 μL MEM-alpha medium (Gibco 12571-063) supplemented with 10% FBS (Gibco 10438026) containing Geneticin (Gibco 10131-027) (1 mg/mL) and incubated at 37° C. in 5% CO2 for 24 hours. After incubation, media was decanted from the wells and cells were washed two times with 300 μL of basal MEM-alpha medium (FBS-free). After decanting basal MEM-alpha medium each time, plates were tapped against paper towel to ensure maximum removal of residual media.
For human LBAT, incubation mix was prepared by adding test inhibitor dilutions (3-fold serial dilution in DMSO (Sigma D2650), 10 points) in MEM-alpha (without FBS) containing 0.3 μM 3H-taurocholic acid (ARC ART-1368) and 7.5 μM cold taurocholic acid (Sigma T4009) (maintaining 0.2% final DMSO concentration). For mouse LBAT, incubation mix was prepared by adding test inhibitor dilutions (3-fold serial dilution in DMSO, 10 points) in MEM-alpha (without FBS) containing 0.3 μM 3H-taurocholic acid and 25 μM cold taurocholic acid maintaining 0.2% final DMSO concentration).
50 μL of incubation mix containing test inhibitors was then added to the wells (in duplicate) and the plates were incubated for 20 minutes in a CO2 incubator at 37° C. After incubation, the reaction was stopped by keeping the plates on ice water mix for 2-3 minutes and then the incubation mix was aspirated completely from the wells. The wells were washed two times with 250 μL of chilled unlabelled 1 mM taurocholic acid dissolved in HEPES (Gibco 15630080)-buffered (10 mM) HBSS (Gibco 14175079) (pH 7.4). The plates were tapped against a paper towel after every wash to ensure maximum removal of blocking buffer.
100 μL of MicroScint-20 (PerkinElmer 6013621) was added to the wells and kept overnight at room temperature before reading the plates in TopCount NXT™ Microplate Scintillation and Luminescence Counter from PerkinElmer under 3H Test protocol (set at 120 seconds reading time per well, with normal plate orientation).
(§1) Preparation of Test Compound Dilutions
(§2) All test compounds were provided in powder form at room temperature. 10 mM DMSO stocks of the test compounds were prepared, aliquoted and stored at −20° C. From the 10 mM DMSO stock of the compounds, a 3-fold serial dilution in DMSO was prepared to get a total of 10 dilutions of the test compounds. 0.5 μL of this dilution in DMSO was added to 250 μL of FBS-free basal media containing 3H-taurocholic acid and cold taurocholic acid to prepare the incubation mixture.

Human IBAT = molecular target: T2, Human IBAT (Homo sapiens, UniProt Q12908); assay: IBAT (h/m) assay, human IBAT-overexpressing cells, 3H-taurocholic acid uptake; type: cell-based; settings: 0.25 μM 3H-taurocholic acid and 5 μM cold taurocholic acid, 20 minutes, highest test concentration 10 μM, read-out: hIBAT IC50
T2 construct: expressed in transfected cells; kept under Puromycin selection
T2 sequence (Q12908 1-348): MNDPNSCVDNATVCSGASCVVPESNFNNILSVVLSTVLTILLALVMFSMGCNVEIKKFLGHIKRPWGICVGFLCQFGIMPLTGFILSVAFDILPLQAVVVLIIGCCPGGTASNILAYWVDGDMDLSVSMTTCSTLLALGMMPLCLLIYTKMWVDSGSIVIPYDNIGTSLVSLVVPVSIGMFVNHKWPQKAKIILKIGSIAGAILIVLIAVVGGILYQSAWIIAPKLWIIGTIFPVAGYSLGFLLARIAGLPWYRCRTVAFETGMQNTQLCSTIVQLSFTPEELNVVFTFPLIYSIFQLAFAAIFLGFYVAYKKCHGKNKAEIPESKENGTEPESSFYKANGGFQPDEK
Method: IBAT (h/m) Assay Protocol
10,000 cells (Human or Mouse IBAT-overexpressing cells) were seeded in 96-wells plate (Corning CLS3809) in 200 μL MEM-alpha medium (Gibco 12571-063) supplemented with 10% FBS (Gibco 10438026) containing Puromycin (Gibco A1113803) (10 μg/mL) and incubated at 37° C. in 5% CO2 for 48 hours. After incubation, media was decanted from the wells and cells were washed two times with 300 μL of basal MEM-alpha medium (FBS-free). After decanting basal MEM-alpha medium each time, plates were tapped against paper towel to ensure maximum removal of residual media. Test inhibitor dilutions (highest test concentration being 10 μM, 3-fold serial dilution, 10 points) prepared in DMSO (Sigma D2650) were added in incubation mix (maintaining 0.2% final DMSO concentration) containing 0.25 μM 3H-taurocholic acid (ARC ART-1368) and 5 μM of cold taurocholic acid (Sigma T4009). 50 μL of incubation mix containing test inhibitors was then added to the wells (in duplicate) and the plates were incubated for 20 minutes in a CO2 incubator at 37° C. After incubation, the reaction was stopped by keeping the plates on ice water mix for 2-3 minutes and then the incubation mix was aspirated completely from the wells. The wells were washed two times with 250 μL of chilled unlabelled 1 mM taurocholic acid dissolved in HEPES (Gibco 15630080)-buffered (10 mM) HBSS (Gibco 14175079) (pH 7.4). The plates were tapped against a paper towel after every wash to ensure maximum removal of blocking buffer.
100 μL of MicroScint-20 (PerkinElmer 6013621) was added to the wells and kept overnight at room temperature before reading the plates in TopCount NXT™ Microplate Scintillation and Luminescence Counter from PerkinElmer under 3H Test protocol (set at 120 seconds reading time per well).
as §1, §2

| IC50 (Human LBAT) [nM] | IC50 (Human IBAT) [nM] | SMILES |
| --- | --- | --- |
| 3.3 | 460 | CCCCC1CN(c2ccc(F)cc2)c2cc(SCC)c(OCC3(C(=O)O)CC3)cc2S(=O)(=O)N1 (centres unmarked) [Example 18, 1-(((3-butyl-7-(ethylthio)-5-(4-fluorophenyl)-1,1-dioxido-2,3,4,5-tetrahydro-1,2,5-benzothiadiazepin-8-yl)oxy)methyl)cyclopropane-1-carboxylic acid] |
| 2280 | ≥ 10000 | CCCCC1CN(c2ccccc2)c2cc(SC)c(OCC(C)(C)C(=O)O)cc2S(=O)(=O)N1C (single isomer, unassigned) [2, enantiomer 1] |
| 93 |  | CCCCC1CN(c2ccccc2)c2cc(SC)c(OCCC(=O)O)cc2S(=O)(=O)C1 (centres unmarked) [Example 25, 3-((3-butyl-7-(methylthio)-1,1-dioxido-5-phenyl-2,3,4,5-tetrahydro-1,5-benzothiazepin-8-yl)oxy)propanoic acid] |
| 106 | > 3330 | CCCCC1CN(c2ccc(F)cc2)c2cc(SCC)c(OCC3(C(=O)O)CC3)cc2S(=O)(=O)N1 (single isomer, unassigned) [19, enantiomer 2] |
| 536 |  | CCCCC1CN(c2ccccc2)c2cc(SCC)c(OCC(C)(C)C(=O)O)cc2S(=O)(=O)N1C (single isomer, unassigned) [6, enantiomer 1] |
| 591 | 4970 | CCCCC1CN(c2ccccc2)c2cc(SCC)c(OCC3(C(=O)O)CC3)cc2S(=O)(=O)N1C (single isomer, unassigned) [8, enantiomer 2] |
| 3.4 | 464 | CCCCC1CN(c2ccc(F)cc2)c2cc(SC)c(OCC3(C(=O)O)CC3)cc2S(=O)(=O)N1 (centres unmarked) [Example 16, 1-(((3-butyl-5-(4-fluorophenyl)-7-(methylthio)-1,1-dioxido-2,3,4,5-tetrahydro-1,2,5-benzothiadiazepin-8-yl)oxy)methyl)cyclopropane-1-carboxylic acid] |
| 5.3 | 2700 | CCCCC1CN(c2ccc(F)cc2)c2cc(SC)c(OCC(C)(C)C(=O)O)cc2S(=O)(=O)C1 (centres unmarked) [Example 9, 3-((3-butyl-5-(4-fluorophenyl)-7-(methylthio)-1,1-dioxido-2,3,4,5-tetrahydro-1,5-benzothiazepin-8-yl)oxy)-2,2-dimethylpropanoic acid] |
| 1.1 | 259 | CCCCC1CN(c2ccccc2)c2cc(SC)c(OCC(F)(F)C(=O)O)cc2S(=O)(=O)N1C (centres unmarked) [Example 20, 3-((3-butyl-2-methyl-7-(methylthio)-1,1-dioxido-5-phenyl-2,3,4,5-tetrahydro-1,2,5-benzothiadiazepin-8-yl)oxy)-2,2-difluoropropanoic acid] |
| 22 | 2090 | CCCCC1CN(c2ccccc2)c2cc(SC)c(OCC(OC)C(=O)O)cc2S(=O)(=O)N1C (single isomer, unassigned) [31, stereoisomer 2] |
| 9.8 |  | CCCCC1CN(c2ccccc2)c2cc(SC)c(OCC(C)(C)C(=O)O)cc2S(=O)(=O)N1C (centres unmarked) [Example 1, 3-((3-Butyl-2-methyl-7-(methylthio)-1,1-dioxido-5-phenyl-2,3,4,5-tetrahydro-1,2,5-benzothiadiazepin-8-yl)oxy)-2,2-dimethylpropanoic acid] |
| 64 |  | CCCCC1CN(c2ccccc2)c2cc(SC)c(OCC(OC)C(=O)O)cc2S(=O)(=O)N1C (centres unmarked) [Example 30, 3-((3-butyl-2-methyl-7-(methylthio)-1,1-dioxido-5-phenyl-2,3,4,5-tetrahydro-1,2,5-benzothiadiazepin-8-yl)oxy)-2-methoxypropanoic acid] |
| 59 |  | CCCCC1CN(c2ccccc2)c2cc(SC)c(OCCC(=O)O)cc2S(=O)(=O)C1 (single isomer, unassigned) [26, enantiomer 1] |
| 187 |  | CCCCC1CN(c2ccccc2)c2cc(SC)c(OCC(O)C(=O)O)cc2S(=O)(=O)C1 (centres unmarked) [Example 28, 3-((3-butyl-7-(methylthio)-1,1-dioxido-5-phenyl-2,3,4,5-tetrahydro-1,5-benzothiazepin-8-yl)oxy)-2-hydroxypropanoic acid] |
| 4.5 | 167 | CCCCC1CN(c2ccc(F)cc2)c2cc(SC)c(OCC3(C(=O)O)CC3)cc2S(=O)(=O)N1C (centres unmarked) [Example 11, 1-(((3-butyl-5-(4-fluorophenyl)-2-methyl-7-(methylthio)-1,1-dioxido-2,3,4,5-tetrahydro-1,2,5-benzothiadiazepin-8-yl)oxy)methyl)cyclopropane-1-carboxylic acid] |
| 10 | 678 | CCCCC1CN(c2ccc(F)cc2)c2cc(SC)c(OCC3(C(=O)O)CC3)cc2S(=O)(=O)C1 (centres unmarked) [Example 10, 1-(((3-butyl-5-(4-fluorophenyl)-7-(methylthio)-1,1-dioxido-2,3,4,5-tetrahydro-1,5-benzothiazepin-8-yl)oxy)methyl)cyclopropane-1-carboxylic acid] |
| 5680 |  | CCCCC1CN(c2ccccc2)c2cc(SC)c(OCC(OC)C(=O)O)cc2S(=O)(=O)N1C (single isomer, unassigned) [31, stereoisomer 1] |
| 673 | ≥ 10000 | CCCCC1CN(c2ccccc2)c2cc(SC)c(OCC3(C(=O)O)CC3)cc2S(=O)(=O)N1C (single isomer, unassigned) [4, enantiomer 1] |
| > 333 | > 10000 | CCCCC1CN(c2ccccc2)c2cc(SC)c(OCC(F)(F)C(=O)O)cc2S(=O)(=O)N1C (single isomer, unassigned) [21, enantiomer 1] |
| 32 | 4780 | CCCCC1CN(c2ccccc2)c2cc(SC)c(OCC(OC)C(=O)O)cc2S(=O)(=O)N1C (single isomer, unassigned) [32, diastereomer 2] |
| 4.2 | > 3330 | CCCCC1CN(c2ccccc2)c2cc(SCC)c(OCC3(C(=O)O)CC3)cc2S(=O)(=O)N1 (centres unmarked) [Example 15, 1-(((3-butyl-7-(ethylthio)-1,1-dioxido-5-phenyl-2,3,4,5-tetrahydro-1,2,5-benzothiadiazepin-8-yl)oxy)methyl)cyclopropane-1-carboxylic acid] |
